“Also recorded” adds a separate entry of the source.
Experiments:
[1] = Induction of diabetes with STZ, serum glucose by glucometer; format: in vivo, mouse; settings: 60 mg/kg i.p. daily for 5 d
Procedure: (§1) Tie2-GFP, wild-type or chimeric FVB mice at 6-12 wk of age were treated with STZ (Sigma-Aldrich) to induce diabetes. Mice were rendered diabetic by i.p. administration of 60 mg/kg STZ in 50 mM sodium citrate, pH 4.5, daily for 5 d. Control mice were treated with daily injections of citrate buffer. Serum glucose was measured from the mouse tail vein using a glucometer. Once serum glucose reached 250 mg/dL, mice were followed with daily measurements for 1 wk prior to use in experiments. Serum glucose levels in STZ mice averaged 461 mg/dL with a range of 372-520 mg/dL, while control mice serum glucose mean level was 120 mg/dL with a range of 94-135 mg/dL. Wounds were induced on the ventral surface of the mouse thigh using a 4 mm punch biopsy. Full-thickness skin was removed, exposing the underlying muscle.

SDF-1α in wound tissue = assay: Wound SDF-1α level (immunostaining); format: in vivo, mouse; settings: after SDF-1α injection, compared to nondiabetic wound
Excerpt: (§2) For immunostaining, paraffin embedded serial sections (5 μm) were first underwent standard deparaffinizing and rehydration procedures and then probed with various Abs. To assess wound SDF-1α^+ cells, sections were double-stained with HTC-conjugated anti-SDF-1α and PE-conjugated different tissue-specific Abs (eBiosciences). To detect blood vessels in wound, sections were stained with HTC-conjugated anti-VEGFR2Ab. For examination of wound EPC recruitment in BM transplantation experiment, sections were double-stained with FITC-GFP and PE-VEGFR2 (BD Biosciences). Nuclei were counterstained with Hoescht dye. Masson's trichrome staining and H&E staining were performed using standard method and all reagents were from Sigma-Aldrich. Tissue sections were analyzed using fluorescence microscopy and ImageJ (NIH) software to quantitate fluorescent intensity. In trichrome stained slides, blue stain (collagen content) was also quantitatively analyzed by ImageJ.

[2] = tested on: circulating EPCs (CXCR4+/VEGFR2+, Tie2+/VEGFR2+); assay: Circulating EPCs by flow cytometry in STZ-diabetic mice; format: in vivo, mouse
Procedure: as §1
(§3) For HBO treatment, mice were placed in an animal hyperbaric chamber (Reneau Corp.) and subjected to 100% oxygen at 2.4 atmospheres absolute (ATA) for 90 min (Davis Wound Healing Protocol). To measure continuous, real-time BM NO levels, NO microelectrodes was inserted into the femoral marrow cavity as previously described. An osteotomy was created on the patellar surface of the murine femur using a 25 G beveled needle, allowing the electrode to be lowered into the marrow space when the animal was placed in the hyperbaric chamber. In some mice, pretreatment with L-NAME (40 mg/kg i.p.) (Sigma-Aldrich) was given 2 h prior to exposure to HBO.
Mobilization of EPCs into circulation was studied using flow cytometry as previously described. Cells isolated from mice were incubated with various Abs (BD Biosciences). Isotype matched mouse immunoglobulins served as controls. One million viable cells were analyzed per sample using an LSR2 multicolor flow cytometer (BD Biosciences). Data was analyzed using FlowJo software (Treestar, Inc.).
Physiologically, increased levels of BM NO result in activation of MMP-9 and conversion of kit ligand to its soluble form, ultimately generating EPC release into circulation. To study the effects of the hyperoxia-induced rise in NO levels in the marrow cavity on mobilization of EPCs into circulation, peripheral blood from diabetic mice was analyzed for EPCs using flow cytometry. A determination of whether hyperoxia, induced by HBO, increases the number of circulating EPCs in the peripheral blood of diabetic mice was made. Specifically, peripheral blood of diabetic mice was examined 18 h after a single HBO treatment. After excluding dead DAPI^+labeled cells, candidate lymphocytes, identified by their typical appearance on forward and side scatter, were gated and CD45^+/CD3^+cell populations were excluded. […] Therefore, several marker combinations were used to quantitate circulating EPCs. […]

[3] = Mouse serum SDF-1α ELISA after wound injection; format: in vivo; settings: 2 h following wound injection of SDF-1α
Procedure: Mouse serum SDF-1α concentration was measured by Quantikine® mouse SDF-1α ELISA kit (R&D Systems) based on manufacturer's protocol.

[4] = tested on: diabetic cutaneous wounds; assay: Peripheral wound healing (wound closure) in diabetic mice; format: in vivo, mouse; settings: diabetic mice, 6 d post-wounding, FIG. 17A
Procedure: as §1
Initial wound surface area was recorded and wounds were then followed serially with daily digital photographs using an Olympus digital camera. Photographs contained an internal scale to allow for standard calibration of measurements. Wound area was quantified using ImageJ software. Wound area was expressed as the percentage of original wound size. Wounds were followed for 6 d and mice were sacrificed at the conclusion of the experiment.
EPCs play a key role in vasculogenesis and cutaneous tissue repair. It was hypothesized that increased numbers of EPCs in circulation, along with enhanced EPC homing to wounds, results in improved wound healing in diabetes. Diabetic wound closure rates were studied, in response to treatment with HBO and SDF-1α alone and in combination. Wounded diabetic mice underwent daily wound injections with SDF-1α, PBS, HBO, or SDF-1α+HBO treatments. […] This healing response was greater than the response to either treatment modality alone. In addition, histochemical analysis was conducted to examine blood vessel density (VEGFR2 staining), cellularity and stromagenesis (H&E staining), and extracellular constitution (trichrome staining) in wound tissues. […]

[5] = tested on: wound EPCs (GFP+/VEGFR2+); assay: EPC homing to wounds in diabetic GFP bone marrow chimeric mice; format: in vivo, mouse
Procedure: All procedures were done with approval from the University of Pennsylvania Institutional Animal Care and Use Committee (IACUC). 6-12 wk-old FVB wild-type mice (FVB/NJ), GFP (FVB/Tg) and Tie2-GFP (Tg(TIE2GFP)87 Sato/J) were purchased from The Jackson Laboratory. For all surgical procedures, mice were anesthetized with an i.p. injection of 80 mg/kg of ketamine (Phoenix Scientific, Inc.) and 20 mg/kg xylazine (Vedco Inc.). For BM transplantation experiments, 1×10^7 BM cells from GFP mice were transplanted to γ-irradiated (900 Rad) FVB wild type mouse via tail vein. […] For local wound SDF-1α injection, SDF-1α protein (R&D Systems) was reconstituted in PBS and injected into the wound base (25 μg/Kg).
as §2, with “For examination of wound EPC recruitment in BM transplantation experiment, sections were double-stained with FITC-GFP and PE-VEGFR2 (BD Biosciences). Nuclei were counterstained with Hoescht dye. Masson's trichrome staining and H&E staining were performed using standard method and all reagents were from Sigma-Aldrich.” left out, “ImageJ. […]” for “ImageJ.”

wound granulation tissue = assay: Histochemistry of diabetic wound tissue (VEGFR2 vessel density, H&E, trichrome collagen); format: in vivo, mouse; settings: diabetic wounds at d 6, FIG. 17D-E
Excerpt: as §2
EPCs play a key role in vasculogenesis and cutaneous tissue repair. It was hypothesized that increased numbers of EPCs in circulation, along with enhanced EPC homing to wounds, results in improved wound healing in diabetes. Diabetic wound closure rates were studied, in response to treatment with HBO and SDF-1α alone and in combination. Wounded diabetic mice underwent daily wound injections with SDF-1α, PBS, HBO, or SDF-1α+HBO treatments. […]

ischemic hindlimb wounds = assay: Hindlimb ischemia (femoral ligation/excision): perfusion, wound BMD EPC and wound healing with daily HBO2; format: in vivo, mouse; settings: 40 mg/kg i.p.
Procedure: In addition, it was observed that HBO2 daily treatments (2.4ATA 100% O2 for 90 min) improved hindlimb perfusion by Laser Doppler Imaging (LDF) after femoral ligation/excision (FIG. 6) and increased the bone marrow-derived (BMD) EPC within the incisional wounds, 3 d post-wounding (with 4 HBO2 treatments) (FIG. 7). By day 8 after wounding, ischemic excisional punch biopsy wounds treated daily with HBO2 healed faster (FIG. 8). […] Each day animals were harvested, and blood (retro-orbital bleeding) and bone marrow (flushing of tibias and femurs) collected (3 mice for each time point had bone marrow collected and 5 mice for each time point had blood collected). VEGFR-2 (kdr) mRNA was semi-quantitated by RT PCR.

[6] = tested on: EPC (cells co-expressing CD34 and Sca-1); assay: EPC mobilization (CD34+/Sca-1+ cells in peripheral blood) in mice exposed to HBO2; format: in vivo, mouse; settings: wild-type mice, 40 mg/kg i.p. 2 hours prior to pressurization
Procedure: In the initial studies searching for the mechanisms for EPC mobilization with HBO2 EPC (assessed as cells that co-expressed CD34 and stem cell antigen-1 (Sca-1)) were also evaluated in peripheral blood of mice. […] In preliminary studies, mice were exposed to HBO2 for 90 minutes at up to 2.8 ATA and also to a pressure control, 2.8 ATA pressure using a gas containing 7.5% O2 (so that O2 partial pressure was the same as ambient air, 0.21 ATA O2). In select studies, mice were pre-treated with intraperitoneal L-nitroarginine methyl ester (L-NAME, to inhibit nitric oxide synthase [NOS]), 40 mg/kg i.p. administered 2 hours prior to pressurization). In anesthetized mice, blood was obtained by aortic puncture and bone marrow was harvested by clipping the ends off a tibia and flushing the marrow cavity with 1 ml PBS. Exposure to 2.8 ATA O2 (but not 100% O2 at ambient pressure or 2.8 ATA pressure at a total O2 partial pressure of only 0.21 ATA O2) increased EPC mobilization immediately after treatment, as well as 16 hrs post-treatment, and with repeated treatments (FIG. 4).
There is precedence for rapid mobilization of stem cells from bone marrow, but most emigration is believed to occur after a period of cell proliferation within the marrow niche.

stem cell factor (SCF) = assay: Plasma stem cell factor by Quantikine M immunoassay in mice (Table I); format: in vivo, mouse; settings: for Plasma SCF if mice pre-treated with L-NAME: L-NAME pre-treatment
[7] = tested on: NO synthesis in bone marrow (NOS); assay: Real-time bone marrow NO measurement with NO microelectrode during HBO; format: in vivo, mouse
Procedure: as §3
In early studies, it was hypothesized that HBO2 augments stem cell mobilization because it stimulates •NO synthesis in the bone marrow, as •NO is known to play a central role with stem cell release from bone marrow. […] Mice were placed in a hyperbaric chamber where, while breathing air, baseline measurements were obtained. The chamber was then flushed with 100% O2 and compressed to 2.4 ATA O2.
Physiologically, the NO-mediated EPC release into circulation occurs in response to tissue-level hypoxia, although this compensatory response is inadequate in the setting of diabetes and results in severe defects in neovascularization and wound healing. […] Therefore, it was sought to utilize HBO as a tool to augment EPC release into circulation and further study both EPC mobilization and wound-homing mechanisms in the presence of diabetes. The goal was to determine whether hyperoxia stimulates NO production in the BM of diabetic mice via a NOS-mediated pathway and whether this pathway is impaired in diabetes. To test this hypothesis, Nafion polymer—coated NO microsensors were inserted into the femur BM space of both STZ induced diabetic and nondiabetic mice to measure real-time NO levels within the BM prior to and is during HBO-induced hyperoxia. […] It was speculated, that this was likely due to a compensatory effect from other NOS isoforms, and therefore the level of both iNOS and nNOS was examined in diabetic mice. […] However, no observation was made of any changes in the phosphorylation of these NOS isoforms.

CN(N=O)C(=O)N[C@@H](C=O)[C@@H](O)[C@H](O)[C@H](O)CO [STZ, streptozocin]
Serum glucose, average [1]: 461 mg/dL | Serum glucose, range [1]: 372 to 520 mg/dL

SDF-1α
local SDF-1α level in diabetic wound (SDF-1α in wound tissue): dramatically increased | circulating EPCs versus other groups / PBS ([2]; wounded diabetic mice, 48 h post-wounding, FIG. 15A): statistically significant increase | increase in circulating EPCs (CXCR4+/VEGFR2+) ([2]; wounded diabetic mice, daily treatment, 48 h post-wounding): 2 fold | systemic (peripheral blood) SDF-1α concentration [3]: increased | wound healing rates compared with PBS treated controls [4]: statistically improved | increase in wound-level EPCs (GFP+/VEGFR2+) ([5]; diabetic chimeric mice, 3 d of treatment, vs untreated diabetic mice): 3 fold | EPCs recruited/homing to wound tissue ([5]; diabetic mice): significant increase | collagen deposit and vessel density (wound granulation tissue): significant increase

COC(=O)[C@@H](N)CCCNC(=N)N[N+](=O)[O-] [L-NAME, L-nitroarginine methyl ester]
HBO2 wound healing improvements with L-NAME prior to HBO2 (ischemic hindlimb wounds): not observed | EPC mobilization with L-NAME injected before HBO2 [6]: did not occur | EPC mobilization following HBO in L-NAME pre-treated animals ([2]; mouse, in vivo): No increase; also recorded: inhibited | Plasma SCF if mice pre-treated with L-NAME (stem cell factor (SCF); air-breathing (control) mice): 39.4 ± 1.9 pg/mL | Plasma SCF if mice pre-treated with L-NAME (stem cell factor (SCF); then 2.8 ATA O2, 16 hours after): 42.4 ± 2.5 pg/mL | HBO2-induced SCF elevation with L-NAME (stem cell factor (SCF); mouse, in vivo): blocked | NO signal in bone marrow with L-NAME pre-treatment ([7]; 40 mg/kg ip before 2.4 ATA O2): no •NO signal was detected | hyperoxia-induced increases in BM NO production after pretreatment ([7]; diabetic and nondiabetic mice): completely inhibited; also recorded: Complete inhibition

Source: patent publication US8440617B2, “Hyperbaric treatment in wound healing” (The Trustees of the University of Pennsylvania, priority 2007, dated 2013)
